Reference: article PMC6087734, “Loss of S100A1 expression leads to Ca^2+ release potentiation in mutant mice with disrupted CaM and S100A1 binding to CaMBD2 of RyR1” (Physiological Reports, 2018)
“Also recorded” adds a separate entry of the source. Residues, ends and D or L forms follow the SMILES beside them.

B1: S100A1, P23297 (protein)
chain: MGSELETAMETLINVFHAHSGKEGDKYKLSKKELKELLQTELSGFLDAQKDVDAVDKVMKELDENGDGEVDFQEYVVLVAALTVACNNFFWENS
B2: S100A1: 21 kDa dimeric molecule characterized by its EF‐hand Ca^2+‐binding motifs (protein, UniProt P23297 1-94, looked up)
Protein S100-A1: B1 chain

What was measured:
[1] = biological target: T1, S100A1 (recombinant human 15N-labeled, Ca2+-loaded) (Homo sapiens, UniProt P23297); assay: ITC of S100A1 association with RyR1 CaMBD peptides; assay type: binding; conditions: for S100A1 binding, in words: 10 mmol/L Ca2+; for N (sites) / Kd / ΔG / ΔH: 37°C, two-site fit, mean ± SD, n = 3; for difference in affinity between the tight and weak peptide-binding site: ratio of KD at the two sites on S100A1 dimer
T1 construct: made in house
T1 sequence (P23297 1-94): B1 chain
Description: All peptides were synthesized using […] peptide synthesis and their purity was determined to be >95% by high pressure liquid chromatography and mass spectrometry (Biosynthesis Inc., Lewisville, TX or GenScript, Piscataway, NJ). Three peptides derived from human RyR1 sequence were synthesized: CaMBD2, residues 3614‐3640, […]; CaMBD1, residues 1975‐1999, […]; and CaMBD3, residues 4303‐4326, […]. As they are internal peptides the C‐terminus was […] and N‐terminus was acetylated to neutralize the charged ends. The peptides stock were made in D6‐DMSO and their concentration were determined by quantitative amino acid analysis (Biosynthesis Inc., Lewisville, TX) and/or determined using the extinction coefficient for the methyl ester of N‐acetyl tryptophan, ε280 = 5600 cm^−1M^−1.
Expression and purification (>95% by SDS‐PAGE) of recombinant human ^15N‐labeled S100A1 was performed as previous described (Melville et al. 2017b). The concentrations of S100A1 stock solutions were determined using the Bio‐Rad Protein Assay (Bio‐Rad Inc., Hercules, CA) using a known concentration of BSA as the standard. Concentrations are given in S100A1 monomer concentration except where indicated.
Heat changes during the titration of each CaMBD peptide into Ca^2+‐S100A1 were measured using a VP‐ITC titration microcalorimeter (MicroCal, Inc., Northhampton, MA) as done previously (Wilder et al. 2003). All solutions were degassed under vacuum and equilibrated at 37°C prior to titration. For each titration the sample cell (1.4 mL) contained 10 mmol/L TES, pH 7.2, 15 mmol/L NaCl, and 10 mmol/L CaCl2, 0.5 mmol/L TCEP, <5% D6‐DMSO (from peptide stocks or equivalent D6‐DMSO added to controls), and 0.04 mmol/L CaMBD peptide, while the reference cell contained water. Upon equilibration, 0.20–0.35 mmol/L S100A1 (dimer concentration) prepared in the same buffer without peptide but equivalent D6‐DMSO was injected using the default injection rate with a time interval between each injection to allow the sample to return to baseline. The resulting titration curves were corrected for protein‐free buffer control.
Images were collected and evaluated using the same settings and enhancing parameters so that all images could be directly compared. Line‐scan images were analyzed using LSM examiner (Carl Zeiss, Jena, DE). Calculation of AP‐induced Ca^2+ signals were conducted using Origin Pro 8 (OriginLab Corporation, Northampton, MA, USA) and SPSS for Windows ver. 24.0 (SPSS Inc., Chicago, IL). Summary data were reported as mean ± SD. Normal distribution of data was assessed using the Kolmogorov–Smirnov test. Unpaired two sample Student's t‐test was used to test for differences between the means of the indo 1‐resting values and peak AP‐induced Ca^2+ transients from two different samples. ITC results were background buffer subtracted and analyzed using the Origin for ITC software (MicroCal, Northampton, MA) and fit using two‐site fitting model (Freire et al. 1990). Differences were considered significant when P < 0.05.

[2] = tested on: CaM; conditions: ref Lau et al. 2014, cited from earlier work; for affinity sequence of CaM for the CaMBDs, in words: ITC data; for CaM binding, in words: isothermal calorimetry, rabbit RyR1 peptides
Text: There is substantial evidence that CaM and S100A1 may bind to multiple sites within the RyR1. […] Given the affinity of S100A1 for the CaMBDs, it is likely that the observed RyR1 re ...

[3] = biological target: RyR1 CaMBD1 peptide (site 1) (Homo sapiens); assay: ITC
[4] = biological target: RyR1 CaMBD1 peptide (site 2) (Homo sapiens); assay: ITC
[5] = biological target: RyR1 CaMBD2 peptide (site 1) (Homo sapiens); assay: ITC
[6] = biological target: RyR1 CaMBD2 peptide (site 2) (Homo sapiens); assay: ITC
[7] = biological target: RyR1 CaMBD3 peptide (site 1) (Homo sapiens); assay: ITC
[8] = biological target: RyR1 CaMBD3 peptide (site 2) (Homo sapiens); assay: ITC
[9] = tested on: RyR1; conditions: in vitro FRET; ref Rebbeck et al. 2016; cited from earlier work
Text: In fast‐type skeletal muscle the intracellular concentration of S100A1 was reported to be ~3 μmol/L (Haimoto and Kato 1987; Zimmer et al. 1991), with total intracellular concentration of CaM being about 5 μmol/L (Robertson et al. 1981).

[10] = peptide-binding site 1, ITC VP-ITC, 10 mmol/L TES pH 7.2, 15 mmol/L NaCl, 10 mmol/L CaCl2, 0.5 mmol/L TCEP, <5% D6-DMSO, 0.04 mmol/L peptide in cell, 0.20-0.35 mmol/L S100A1 (dimer) injected
[11] = peptide-binding site 1, ITC, pH 7.2, 10 mmol/L CaCl2
[12] = peptide-binding site 2, ITC, pH 7.2, 10 mmol/L CaCl2

Molecule	N (sites) [1, 10]	Kd [1, 11]	ΔG [1, 11]	ΔH [1, 11]	Kd [1, 12]	N (sites) [1, 12]	ΔG [1, 12]	ΔH [1, 12]	difference in affinity between the tight and weak peptide-binding site [1]	affinity sequence of CaM for the CaMBDs, in words [2]	CaM binding, in words [2]	further results
CC[C@H](C)[C@H](NC(=O)[C@H](CC(C)C)NC(=O)[C@H](CC(C)C)NC(=O)CNC(=O)[C@H](Cc1ccc(O)cc1)NC(=O)[C@H](CCCNC(=N)N)NC(=O)[C@H](CO)NC(C)=O)C(=O)N[C@@H](CCCCN)C(=O)N[C@@H](C)C(=O)N[C@@H](Cc1ccccc1)C(=O)N[C@@H](CO)C(=O)N[C@@H](CCSC)C(=O)N[C@H](C(=O)N[C@@H](C)C(=O)N[C@@H](C)C(=O)N[C@@H](CCC(=O)O)C(=O)N[C@H](C(=O)N[C@@H](C)C(=O)N[C@@H](CCCNC(=N)N)C(=O)N[C@@H](CCCNC(=N)N)C(=O)N[C@H](C(=O)N[C@@H](CCCNC(=N)N)C(=O)N[C@@H](CCC(=O)O)C(=O)N[C@@H](Cc1ccccc1)C(=O)N[C@@H](CCCNC(=N)N)C(N)=O)[C@@H](C)O)[C@@H](C)O)[C@@H](C)O [CaMBD1] (Ac-SRYGLLIKAFSMTAAETARRTREFR-NH2)	1.14 ± 0.10	1.3 ± 0.284 µM	-8.4 ± 0.1 kcal/mol	-4.5 ± 0.7 kcal/mol	21 µM	0.75 ± 0.07	-6.7 ± 0.2 kcal/mol	-10.8 ± 0.4 kcal/mol	16 fold	CaMBD2 > CaMBD3 > CaMBD1		S100A1 binding, in words ([1]; ITC): binds with different affinities; also recorded: weakest affinity
CSCC[C@H](NC(=O)[C@H](CCCNC(=N)N)NC(=O)[C@H](Cc1ccccc1)NC(=O)[C@H](CS)NC(=O)[C@H](C)NC(=O)[C@@H](NC(=O)[C@@H](NC(=O)[C@H](C)NC(=O)[C@H](CCCNC(=N)N)NC(=O)[C@H](CCCNC(=N)N)NC(=O)[C@H](CCCNC(=N)N)NC(=O)[C@H](CCC(N)=O)NC(=O)[C@H](CCCCN)NC(=O)[C@H](CO)NC(=O)[C@H](CC(C)C)NC(=O)[C@H](CC(C)C)NC(=O)[C@H](CCCCN)NC(=O)[C@H](Cc1c[nH]cn1)NC(=O)[C@H](Cc1c[nH]c2ccccc12)NC(=O)[C@@H](NC(=O)[C@H](C)NC(=O)[C@H](CCCCN)NC(=O)[C@H](CCCCN)NC(=O)[C@H](CO)NC(=O)[C@H](CCCCN)NC(C)=O)C(C)C)C(C)C)C(C)C)C(=O)N[C@H](C(=O)N1CCC[C@H]1C(N)=O)[C@@H](C)O [CaMBD2] (Ac-KSKKAVWHKLLSKQRRRAVVACFRMTP-NH2)	0.78 ± 0.09	0.146 ± 0.0239 µM	-9.7 ± 0.1 kcal/mol	-11.4 ± 0.2 kcal/mol	17 µM	0.51 ± 0.15	-6.8 ± 0.1 kcal/mol	-10.3 ± 3.0 kcal/mol	114 fold	CaMBD2 > CaMBD3 > CaMBD1		
CC(=O)N[C@@H](CCCNC(=N)N)C(=O)N[C@@H](C)C(=O)N[C@@H](CC(C)C)C(=O)N[C@@H](CCCNC(=N)N)C(=O)NCC(=O)N[C@@H](CC(C)C)C(=O)N[C@@H](CO)C(=O)N[C@@H](Cc1ccc(O)cc1)C(=O)N[C@@H](CCCNC(=N)N)C(=O)N[C@@H](CO)C(=O)N[C@@H](CC(C)C)C(=O)N[C@@H](CCCNC(=N)N)C(=O)N[C@@H](CCCNC(=N)N)C(=O)N[C@@H](CCCNC(=N)N)C(=O)N[C@H](C(=O)N[C@@H](CCCNC(=N)N)C(=O)N[C@@H](CCCNC(=N)N)C(=O)N[C@@H](CC(C)C)C(=O)N[C@@H](CCCNC(=N)N)C(=O)N[C@@H](CCCNC(=N)N)C(=O)N[C@@H](CC(C)C)C(=O)N[C@H](C(=O)N[C@@H](C)C(=O)N[C@@H](CCCNC(=N)N)C(N)=O)[C@@H](C)O)C(C)C [CaMBD3] (Ac-RALRGLSYRSLRRRVRRLRRLTAR-NH2)	1.79 ± 0.08	0.0089 ± 0.011 µM	-11.9 ± 1.2 kcal/mol	-3.6 ± 0.7 kcal/mol	6.7 µM	1.27 ± 0.07	-7.4 ± 0.2 kcal/mol	-6.1 ± 0.9 kcal/mol	755 fold	CaMBD2 > CaMBD3 > CaMBD1		S100A1 binding, in words ([1]; ITC): binds with different affinities; also recorded: tightest S100A1 binding
rCaMBD1: peptide from rabbit RyR1, residues 3614‐3640 (as printed), Lau et al. 2014 (KSKKAVWHKLLSKQRRRAVVACFRMTP; UniProt P11716 3614-3640, looked up, fragment) [reference compound]											CaM can bind	
rCaMBD2: peptide from rabbit RyR1, residues 1975‐1999 (as printed), Lau et al. 2014 (SRYALLMRAFTMSAAETARRTREFR; UniProt P11716 1975-1999, looked up, fragment) [reference compound]											CaM can bind	
rCaMBD3: peptide from rabbit RyR1, residues 4295‐4325, Lau et al. 2014 (RLAAAAARALRGLSYRSLRRRVRRLRRLTAR; UniProt P11716 4295-4325, looked up, fragment) [reference compound]											CaM can bind	
B1												Kd [3]: 1.3 µM; Kd [4]: 21 µM; Kd [5]: 0.146 µM; Kd [6]: 17 µM; Kd [7]: 0.0089 µM; Kd [8]: 6.7 µM
B2												S100A1 concentration required for RyR1 modulation, in words [9]: high unphysiological (micromolar) concentration
